Source: US20250115598A1 (Anaxis Pharma Pty Ltd, priority 2021, published 2025)

Tests used:
[1] = target: human RIPK1 (Homo sapiens (Human), UniProt Q13546); assay: KINOMEscan binding assay, human RIPK1; settings: Table 21
Method in brief: (§1)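 Competition binding format with qPCR detection. Kinases, either phage-fused from E. coli lysates or HEK-293-derived with a DNA tag, bound ligand-coated beads in the presence of compound (11 points, 3-fold steps, 1% DMSO, top usually 30,000 nM). Kd from nonlinear Hill fitting with slope −1.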

[2] = target: human RIPK3 (Homo sapiens (Human), UniProt Q9Y572); assay: KINOMEscan binding assay, human RIPK3; settings: Table 21
human RIPK3, sequence (Q9Y572 whole entry): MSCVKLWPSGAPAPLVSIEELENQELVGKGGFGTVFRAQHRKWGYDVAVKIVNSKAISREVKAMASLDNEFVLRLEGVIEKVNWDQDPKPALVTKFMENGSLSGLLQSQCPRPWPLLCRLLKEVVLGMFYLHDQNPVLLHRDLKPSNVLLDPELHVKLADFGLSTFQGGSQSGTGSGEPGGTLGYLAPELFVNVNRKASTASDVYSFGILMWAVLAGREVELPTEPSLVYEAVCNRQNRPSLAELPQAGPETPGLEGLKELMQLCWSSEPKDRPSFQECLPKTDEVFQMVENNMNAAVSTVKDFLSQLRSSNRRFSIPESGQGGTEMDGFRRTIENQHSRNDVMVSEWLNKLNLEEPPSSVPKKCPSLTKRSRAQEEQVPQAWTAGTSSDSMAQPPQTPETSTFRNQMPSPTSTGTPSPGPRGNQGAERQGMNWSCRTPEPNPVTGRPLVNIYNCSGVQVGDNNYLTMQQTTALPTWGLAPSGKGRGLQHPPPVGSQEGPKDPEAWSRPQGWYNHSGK
Method in brief: as §1

[3] = target: endogenous MLKL in MDF (Mus musculus (Mouse), UniProt Q9D2Y4); assay: Degradation assay: endogenous MLKL in MDF (western blot); settings: MDF cells, 24 h incubation with compound, MLKL adjusted for loading with GAPDH, normalized to DMSO only control, read-out: Degradation of endogenous MLKL in MDF (DC50 cell-based assay)
endogenous MLKL in MDF, sequence (Q9D2Y4 whole entry): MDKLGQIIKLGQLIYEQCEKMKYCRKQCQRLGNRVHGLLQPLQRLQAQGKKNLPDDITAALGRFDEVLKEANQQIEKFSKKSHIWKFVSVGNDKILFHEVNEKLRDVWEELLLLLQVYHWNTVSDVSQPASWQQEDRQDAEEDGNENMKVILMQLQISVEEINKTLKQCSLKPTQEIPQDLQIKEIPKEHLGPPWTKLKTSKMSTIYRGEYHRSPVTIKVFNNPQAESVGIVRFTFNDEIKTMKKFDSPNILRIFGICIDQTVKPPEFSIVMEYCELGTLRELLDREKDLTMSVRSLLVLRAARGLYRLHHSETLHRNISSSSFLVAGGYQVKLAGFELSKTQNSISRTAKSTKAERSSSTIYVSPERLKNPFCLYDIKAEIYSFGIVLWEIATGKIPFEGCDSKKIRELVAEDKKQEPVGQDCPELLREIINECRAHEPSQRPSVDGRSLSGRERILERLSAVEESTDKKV
Method in brief: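 MDF (seeded the day before) or U937 cells were treated 24 h at 37 °C, 10% CO2 with compound at 10, 2, 0.4, 0.08 and 0.016 μM final. Endogenous MLKL was quantified by western blot (anti-MLKL 3H1), normalized to GAPDH. Percent degradation was taken relative to DMSO control.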

human RIPK1, sequence (Q13546 whole entry, the tested form may be a part): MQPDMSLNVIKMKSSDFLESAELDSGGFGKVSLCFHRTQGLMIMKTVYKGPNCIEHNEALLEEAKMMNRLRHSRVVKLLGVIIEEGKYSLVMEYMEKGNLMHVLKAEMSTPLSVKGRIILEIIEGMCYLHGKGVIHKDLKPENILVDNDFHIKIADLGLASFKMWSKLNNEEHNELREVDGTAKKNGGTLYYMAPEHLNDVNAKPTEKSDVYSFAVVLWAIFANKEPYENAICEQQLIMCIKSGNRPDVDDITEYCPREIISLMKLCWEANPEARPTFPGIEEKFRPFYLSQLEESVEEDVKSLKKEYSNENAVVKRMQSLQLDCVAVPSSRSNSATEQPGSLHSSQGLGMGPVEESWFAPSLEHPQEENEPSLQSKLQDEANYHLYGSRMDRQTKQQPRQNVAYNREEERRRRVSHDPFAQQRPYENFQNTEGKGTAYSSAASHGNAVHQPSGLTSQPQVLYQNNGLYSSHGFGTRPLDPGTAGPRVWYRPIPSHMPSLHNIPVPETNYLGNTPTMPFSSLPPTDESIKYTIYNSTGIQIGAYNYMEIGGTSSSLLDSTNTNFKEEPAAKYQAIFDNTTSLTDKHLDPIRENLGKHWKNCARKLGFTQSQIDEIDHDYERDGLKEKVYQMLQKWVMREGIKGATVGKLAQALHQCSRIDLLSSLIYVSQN

For Nc1ncc(-c2cnn(C3CCOCC3)c2)c2[nH]nc(-c3ccc(NS(=O)(=O)C(F)F)c(OCc4cccc(Cl)c4)c3)c12 [Compound 131], the Kd [1] was greater than 10 µM and the Kd [2] was greater than 10 µM.
Work on C[C@H](Oc1cc(-c2nn(C)c3c(-c4cnn(CCCCCCCOc5cccc6c5C(=O)N(C5CCC(=O)NC5=O)C6=O)c4)cnc(N)c23)ccc1NS(=O)(=O)C(F)F)c1ccc(F)cc1 (some centres unmarked) [Compound 1031, N-(4-{4-amino-7-[1-(7-{[2-(2,6-dioxopiperidin-3-yl)-1,3-dioxo-2,3-dihydro-1H-isoindol-4-yl]oxy}heptyl)-1H-pyrazol-4-yl]-1-methyl-1H-pyrazolo[4,3-c]pyridin-3-yl}-2-[(1 S)-1-(4-fluorophenyl)ethoxy]phenyl)-1,1-difluoromethanesulfonamide] yielded a DC50 [3] of less than 1 µM.
Work on “N-(4-(4-amino-1-methyl-7-(1-(1,2,2-trimethylpiperidin-4-yl)-1H-pyrazol-4-yl)-1H-pyrazolo[4,3-c]pyridin-3-yl)-2-((S)-1-(4-fluorophenyl)ethoxy)phenyl)-1,1-difluoromethanesulfonamide [Compound 113]” yielded a Kd [1] greater than 10 µM and a Kd [2] greater than 10 µM.
